The structures appear in SMILES notation. pIC50: −log10 of the molar value.

In test [1] the target is T1, C-C chemokine receptor type 3 (Homo sapiens, UniProt P51677).
T1 sequence (P51677 whole entry): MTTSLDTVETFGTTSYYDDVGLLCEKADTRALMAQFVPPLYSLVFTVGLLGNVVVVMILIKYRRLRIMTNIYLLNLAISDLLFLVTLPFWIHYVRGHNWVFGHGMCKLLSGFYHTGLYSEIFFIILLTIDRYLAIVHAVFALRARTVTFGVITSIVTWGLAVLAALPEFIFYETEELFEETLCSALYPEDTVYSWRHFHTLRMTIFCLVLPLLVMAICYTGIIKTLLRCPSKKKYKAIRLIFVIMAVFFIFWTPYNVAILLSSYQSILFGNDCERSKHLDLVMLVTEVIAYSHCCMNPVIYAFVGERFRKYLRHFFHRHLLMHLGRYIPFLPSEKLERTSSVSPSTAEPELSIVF
Kind of test: Inhibitory activity against C-C chemokine receptor type 3.

The target of test [2] is C-X-C chemokine receptor type 4 (Homo sapiens, UniProt P61073). As to the kind of experiment: Inhibitory activity against C-X-C chemokine receptor type 4.
Test [3] addresses T2, C-C chemokine receptor type 5 (Homo sapiens, UniProt P51681). Kind of test: Binding affinity against C-C chemokine receptor type 5 stably expressed in Chinese hamster ovary (CHO) cells using [125I]-MIP-1 alpha as the radioligand. Format: cell-based.
Target sequence in this assay (P51681 whole entry): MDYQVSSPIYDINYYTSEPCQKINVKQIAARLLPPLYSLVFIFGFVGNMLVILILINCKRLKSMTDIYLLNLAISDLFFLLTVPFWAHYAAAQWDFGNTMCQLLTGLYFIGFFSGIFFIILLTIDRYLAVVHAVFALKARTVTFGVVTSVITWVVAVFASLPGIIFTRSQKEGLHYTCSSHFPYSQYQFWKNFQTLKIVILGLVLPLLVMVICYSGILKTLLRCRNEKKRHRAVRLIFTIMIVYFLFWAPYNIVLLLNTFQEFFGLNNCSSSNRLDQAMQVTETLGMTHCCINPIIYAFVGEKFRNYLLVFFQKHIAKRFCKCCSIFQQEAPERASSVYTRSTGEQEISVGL
In test [4] the target is C-C chemokine receptor type 2 (Homo sapiens, UniProt P41597). As to the kind of experiment: Inhibitory activity against C-C chemokine receptor type 2.
The target of test [5] is T3, C-C chemokine receptor type 1 (Homo sapiens, UniProt P32246).
T3 sequence (P32246 whole entry): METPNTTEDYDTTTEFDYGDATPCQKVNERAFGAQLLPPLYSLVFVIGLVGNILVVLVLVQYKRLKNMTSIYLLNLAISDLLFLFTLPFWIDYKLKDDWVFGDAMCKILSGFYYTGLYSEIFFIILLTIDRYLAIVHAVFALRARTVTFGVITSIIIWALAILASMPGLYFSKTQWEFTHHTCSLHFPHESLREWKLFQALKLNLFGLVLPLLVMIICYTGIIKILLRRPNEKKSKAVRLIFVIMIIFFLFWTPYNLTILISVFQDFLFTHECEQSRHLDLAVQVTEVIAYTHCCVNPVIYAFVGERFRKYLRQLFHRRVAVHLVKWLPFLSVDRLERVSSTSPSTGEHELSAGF
Kind of test: Inhibitory activity against C-C chemokine receptor type 1.

For test [6], the system named is Human immunodeficiency virus 1. As to the kind of experiment: Antiviral activity against HIV-1 viral replication in isolated peripheral blood mononuclear cells (PBMCs). The test is classed as functional.
Test [7] deals with T4, C-C chemokine receptor type 4 (Homo sapiens, UniProt P51679).
T4 sequence (P51679 whole entry): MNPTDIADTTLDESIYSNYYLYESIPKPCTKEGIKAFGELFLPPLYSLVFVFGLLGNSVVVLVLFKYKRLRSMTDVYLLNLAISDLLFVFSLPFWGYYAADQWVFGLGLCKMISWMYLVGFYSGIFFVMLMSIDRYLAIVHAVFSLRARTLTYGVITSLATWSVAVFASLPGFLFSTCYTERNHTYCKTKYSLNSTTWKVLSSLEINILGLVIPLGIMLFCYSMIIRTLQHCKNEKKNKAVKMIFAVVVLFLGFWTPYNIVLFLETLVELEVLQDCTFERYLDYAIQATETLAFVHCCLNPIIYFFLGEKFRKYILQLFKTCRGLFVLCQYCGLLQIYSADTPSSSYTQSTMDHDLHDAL
Kind of test: Inhibitory activity against C-C chemokine receptor type 4.

For test [8], the target named is T2, C-C chemokine receptor type 5. As to the kind of experiment: Percent inhibition of the [125I]-MIP-1 alpha binding towards C-C chemokine receptor type 5 stably expressed in Chinese hamster ovary (CHO) cells at a concentration of 1.7 uM. The test is classed as cell-based.
Target sequence in this assay (P51681 whole entry, looked up): as the sequence (P51681 whole entry) above
Test [9] shares this target. As to the kind of experiment: Percent inhibition of the [125I]-MIP-1 alpha binding towards C-C chemokine receptor type 5 stably expressed in Chinese hamster ovary (CHO) cells at a concentration of 1 uM. The test is classed as cell-based.
Target sequence in this assay (P51681 whole entry, looked up): as the sequence (P51681 whole entry) above
Test [10] has the same target. Kind of test: Percent inhibition of the [125I]-MIP-1 alpha binding towards C-C chemokine receptor type 5 stably expressed in Chinese hamster ovary (CHO) cells at a concentration of 10 uM. Format: cell-based.
Target sequence in this assay (P51681 whole entry, looked up): as the sequence (P51681 whole entry) above

Sequence of C-C chemokine receptor type 2 (P41597 whole entry): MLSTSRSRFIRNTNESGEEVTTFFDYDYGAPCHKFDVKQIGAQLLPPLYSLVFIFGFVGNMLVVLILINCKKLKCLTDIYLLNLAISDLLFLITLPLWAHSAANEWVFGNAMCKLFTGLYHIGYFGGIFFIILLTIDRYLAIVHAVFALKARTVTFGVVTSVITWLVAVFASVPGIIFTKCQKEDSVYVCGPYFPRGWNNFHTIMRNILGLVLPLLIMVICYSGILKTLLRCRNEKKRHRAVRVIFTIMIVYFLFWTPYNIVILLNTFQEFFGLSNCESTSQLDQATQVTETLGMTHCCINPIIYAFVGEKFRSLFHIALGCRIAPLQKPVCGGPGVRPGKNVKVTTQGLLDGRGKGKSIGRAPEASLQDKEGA
Sequence of C-X-C chemokine receptor type 4 (P61073 whole entry): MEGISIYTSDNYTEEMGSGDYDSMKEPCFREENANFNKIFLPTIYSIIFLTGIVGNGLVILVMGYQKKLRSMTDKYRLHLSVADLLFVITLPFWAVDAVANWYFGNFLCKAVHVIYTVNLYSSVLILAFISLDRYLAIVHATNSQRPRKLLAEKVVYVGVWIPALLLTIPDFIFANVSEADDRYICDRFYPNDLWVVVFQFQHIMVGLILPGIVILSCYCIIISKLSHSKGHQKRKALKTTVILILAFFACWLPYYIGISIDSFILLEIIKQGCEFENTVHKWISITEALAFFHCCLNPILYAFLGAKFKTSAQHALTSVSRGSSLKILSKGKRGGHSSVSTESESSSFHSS

The term pIC50 denotes the IC50 on a negative log10 scale, so that one unit is a factor of ten. Read a low pIC50 as a high IC50. The term IC95 denotes the concentration needed for an effect of 95%. The low end stands for an effect from little substance, the high end for a need for much substance. For the compound `CCN(C(=O)OCc1ccccc1)C1CCN(CCC(C)(CN2C(=O)N[C@H](Cc3c[nH]c4ccccc34)C2=O)c2ccccc2)CC1` (stereo partly drawn), the pIC50 in test [1] was under 6.00; in [2], under 6.00; in test [3], 8.40; in test [4], under 6.00; in test [5] it was under 6.00; in [7] it was under 6.00. The compound further registered an IC95 in [6] of 12500 nM.
In the case of `C=CCN(C(=O)OCc1ccccc1)C1CCN(CCC(CN2C(=O)N[C@H](Cc3c[nH]c4ccccc34)C2=O)c2ccccc2)CC1` (stereo partly drawn), the pIC50 in [1] is under 6.00; in [2], under 6.00; in [3] it was 8.15; in test [4], under 6.00; in test [5], under 6.00; in [7] it was under 6.00. Also, the IC95 in test [6] was over 3000 nM.
`CCN(C(=O)OCc1ccccc1)C1CCN(CCC(C)(CN2C(=O)N[C@H](Cc3c[nH]c4ccccc34)C2=O)c2cccc(Cl)c2)CC1` (stereo partly drawn): the pIC50 in test [3] was 7.11.
For orientation: inhibition means the change of the read-out against control, counted positive when it falls. A high value points to a strong effect. The compound `O=C1N[C@H](Cc2ccccc2)C(=O)N1CC(CCN1CCC2(CC1)C[S+]([O-])c1ccccc12)c1cccc(Cl)c1` (stereo partly drawn) returned an inhibition in [8] of 39%.
Consider `CN1C(=O)N(CC(CCN2CCC(c3ccccc3)CC2)c2cccc(Cl)c2)C(=O)[C@H]1Cc1ccccc1` (stereo partly drawn), for which the inhibition in [9] was determined as 52%.
Consider `O=C1N[C@H](Cc2ccccc2)C(=O)N1CC(CCN1CCC(c2ccccc2)CC1)c1cccc(Cl)c1` (stereo partly drawn), for which, in [3], the pIC50 was 6.60.
For `O=C1N[C@H](Cc2c[nH]c3ccccc23)C(=O)N1CC(CCN1CCC(c2ccccc2)CC1)c1ccccc1` (stereo in doubt; 22), the inhibition in test [9] is 71%.
For `C=CCN(C(=O)OCc1ccccc1)C1CCN(CCC(C)(CN2C(=O)N[C@H](Cc3c[nH]c4ccccc34)C2=O)c2cccc(Cl)c2)CC1` (stereo partly drawn), the pIC50 in test [1] was under 6.00; in test [2], under 6.00; in [3] it was 7.49; in [4], under 6.00; in test [5], under 6.00; in test [7], under 6.00.
Take `CCN(C(=O)OCc1ccccc1)C1CCN(CCC(CN2C(=O)N[C@H](Cc3c[nH]c4ccccc34)C2=O)c2ccccc2)CC1` (stereo partly drawn): the pIC50 is under 6.00 in [1]; under 6.00 in test [2]; 7.89 in test [3]; under 6.00 in [4]; under 6.00 in test [5]; under 6.00 in test [7]. This compound also registered an IC95 in test [6] of 25000 nM.
Take `CC(CCN1CCC(c2ccccc2)CC1)(CN1C(=O)N[C@H](Cc2c[nH]c3ccccc23)C1=O)c1cccc(Cl)c1` (stereo partly drawn): in test [3], the pIC50 is 7.00.
Consider `C=CCN(C(=O)OCc1ccccc1)C1CCN(CCC(C)(CN2C(=O)N[C@H](Cc3c[nH]c4ccccc34)C2=O)c2ccccc2)CC1` (stereo partly drawn), for which the pIC50 in [1] is under 6.00; in test [2] it was under 6.00; in test [3] it was 8.30; in [4], under 6.00; in test [5], under 6.00; in test [7], under 6.00. Further, in [6], the IC95 was over 3000 nM.
`O=C1N[C@H](Cc2c[nH]cn2)C(=O)N1CC(CCN1CCC(c2ccccc2)CC1)c1ccccc1` (stereo partly drawn) had an inhibition in test [9] of 25%.
Still for that read-out and setting: in the case of `Cn1cc(C[C@H]2NC(=O)N(CC(CCN3CCC(c4ccccc4)CC3)c3cccc(Cl)c3)C2=O)c2ccccc21` (stereo partly drawn) it was 43%.
On to `C=CCN(C(=O)OCc1ccccc1)C1CCN(CCC(CN2C(=O)N[C@H](Cc3c[nH]c4ccccc34)C2=O)c2cccc(Cl)c2)CC1` (stereo partly drawn), for which the pIC50 in test [1] is under 6.00; in [2], under 6.00; in [3], 8.52; in [4], under 6.00; in test [5], under 6.00; in test [7], under 6.00. Also, the 95% effect level in [6] (IC95) was put at 12500 nM.
In test [9], `CS(=O)(=O)N1CC2(CCN(CCC(CN3C(=O)N[C@H](Cc4ccccc4)C3=O)c3cccc(Cl)c3)CC2)c2ccccc21` (stereo partly drawn) registered an inhibition of 55%.
The compound `O=C1N[C@H](Cc2ccccc2)C(=O)N1CC(CCN1CCC2(CC1)CSc1ccccc12)c1cccc(Cl)c1` (stereo partly drawn) returned an inhibition in [8] of 24%.
In turn, `O=C1CC2(CCN(CCC(CN3C(=O)N[C@H](Cc4ccccc4)C3=O)c3cccc(Cl)c3)CC2)c2ccccc21` (stereo partly drawn) had a negative logarithm of the IC50 (pIC50) in [3] of 6.70.
In test [3], `O=C1N[C@H](Cc2c[nH]c3ccccc23)C(=O)N1CC(CCN1CCC(c2ccccc2)CC1)c1cccc(Cl)c1` (single isomer, unassigned) showed a pIC50 of 7.10.
Regarding `O=C1N[C@H](Cc2csc3ccccc23)C(=O)N1CC(CCN1CCC(c2ccccc2)CC1)c1cccc(Cl)c1` (stereo partly drawn), the inhibition in test [9] stood at 67%.
As to `O=C1[C@@H](Cc2ccccc2)N(Cc2ccccc2)C(=O)N1CC(CCN1CCC(c2ccccc2)CC1)c1cccc(Cl)c1` (stereo partly drawn), the inhibition in test [9] worked out at 40%.
In turn, `O=C1CC2(CCN(CCC(CN3C(=O)N[C@@H](c4ccccc4)C3=O)c3cccc(Cl)c3)CC2)c2ccccc21` (stereo partly drawn) returned an inhibition in test [9] of 52%.
In test [10], `C[C@H]1NC(=O)N(CC(CCN2CCC(c3ccccc3)CC2)c2cccc(Cl)c2)C1=O` (stereo partly drawn) returned an inhibition of 43%.
For `CCN(C(=O)OCc1ccccc1)C1CCN(CCC(CN2C(=O)N[C@H](Cc3c[nH]c4ccccc34)C2=O)c2cccc(Cl)c2)CC1` (stereo partly drawn), the pIC50 is under 6.00 in test [1]; under 6.00 in test [2]; 8.70 in test [3]; under 6.00 in test [4]; under 6.00 in test [5]; under 6.00 in test [7]. The compound further had an IC95 in test [6] of 12500 nM.
With `O=C1N[C@H](Cc2c[nH]c3ccccc23)C(=O)N1CC(CCN1CCC(c2ccccc2)CC1)c1ccccc1` (stereo in doubt; 24), in [9], the inhibition was found to be 71%.
In test [3], `O=C1CC2(CCN(CCC(CN3C(=O)N[C@H](c4ccccc4)C3=O)c3cccc(Cl)c3)CC2)c2ccccc21` (stereo partly drawn) gave a pIC50 of 6.22.
Still for that read-out and setting: in the case of `O=C1N[C@H](Cc2c[nH]c3ccccc23)C(=O)N1CC(CCN1CCC(c2ccccc2)CC1)c1cccc(Cl)c1` (stereo in doubt) it was 7.60.
In test [9], `CC(CCN1CCC(c2ccccc2)CC1)(CN1C(=O)N[C@H](Cc2c[nH]c3ccccc23)C1=O)c1ccccc1` (stereo partly drawn) registered an inhibition of 80%.

For the origin of these results see ChEMBL document CHEMBL1133866, “Discovery of human CCR5 antagonists containing hydantoins for the treatment of HIV-1 infection” (Bioorg Med Chem Lett, 2001).
